{
  "source": "patent US20040019066A1",
  "about": "“Methionine salvage pathway in bacillus” (priority 2002, published 2004)",
  "key": {"[1]": {"tested_on": "B. subtilis 168 and mtn region mutants", "experiment": "Growth on MTR as sole sulfur source (ED1 minimal medium plates)", "format": "cell-based, Bacillus subtilis", "conditions": "mtnX mutant, strain BFS1852, in the absence of IPTG"}, "[2]": {"tested_on": "Strain BSHP7014 (mtnW:lacZ amyE::pxyl mtnXYZ)", "experiment": "Toxicity of MTR for BSHP7014 strain (paper disc on ED1 minimal medium plates)", "format": "cell-based, Bacillus subtilis", "description": "Toxicity of MTR for BSHP7014 strain. Strain BSHP7014 (mtnW:lacZ amyE::pxyl mtnXYZ) was grown on ED1 minimal medium plates in the presence of sulfate as sulfur source (panel A) or in the absence of any added sulfur source (agar as sole sulfur source, panel B). Xylose was added to the medium in order to trigger the expression of mtnXYZ from the pxyl promoter, 10 μl of methionine (met) or MTR was adsorbed on paper discs and plates were incubated over-night at 37° C. Methionine was used as a control for growth and/or toxicity of the sulfur source.\nTwo genes in the pathway are dispensable, mtnV and mtnX. The first one encodes a transaminase of which there are nine putative paralogs in the genome of B. subtilis (YwfG, AlaT, AspB, PatA, YhdR, YdfD, PatB, YisV, and HisC). In the same way, MtnX (YkrX) is a member of the phosphatase family pfam00702 ([12], FIG. 6), and therefore of a ubiquitous class of hydrolases (several phosphatase genes, in particular are present in the genome of B. subtilis). This is likely to account for the lack of phenotype under our growth conditions. […] In contrast, we discovered that MTR is toxic when the distal genes are present (when used as sole sulfur source or in the presence of sulfate, see FIG. 7). Because of the weak phenotype of a mtnZ mutant and the absence of phenotype of a mtnX mutant, we can be confident that MtnY acts before MtnW (this is a common feature in operons, where it is generally observed that the more distal genes code for proteins acting in the more proximate steps of the pathway).\nBacterial strains and plasmids, and growth media: E. coli and B. subtilis strains as well as plasmids used in this work are listed in Table 3. E. coli TG1 and XL1-Blue were used for cloning experiments (TG1 for single cross-over recombination and XL1-Blue for double cross-over recombination). Despite the fact that there are no public regulations yet in this domain in China, all experiments were performed in accordance with the European regulation requirements concerning the contained use of Genetically Modified Organisms of Group-I (French agreement N^o 2735). […] In the latter case, 10 [μl of the sulfur source under investigation was applicated onto paper discs (MTR, 200 mM stock solution and methionine, 100 mM stock solution) deposited at the center of the plate, after bacteria had been uniformly spread at the surface of the plate, and growth was measured around the disK. […] The optical density (OD) of bacterial cultures was measured at 600 nm. […]"}},
  "data": [
    {"compound": "CSC[C@@H](O)[C@@H](O)[C@@H](O)C=O", "note": "[MTR, methylthioribose]", "values": [
      {"measurement": "Growth on MTR as sole sulfur source", "setting": "[1]", "value": "failed to grow"},
      {"measurement": "Toxicity of MTR to the cell", "setting": "[2]; mtnU mutant, mtnY functional", "value": "toxic"},
      {"measurement": "Influence of MTR on sulfate supplemented plates", "setting": "[2]; mtnW inactivated with a polar effect on the distal genes", "value": "lack of influence"},
      {"measurement": "Toxicity of MTR to the cell", "setting": "[2]; mtnW mutant with distal genes mtnXYZ present, MTR as sole sulfur source or in the presence of sulfate", "value": "extremely toxic"}
    ]}
  ]
}
